The values below are quoted from earlier work in patent publication US20080317886A1, “Compositions for Preventing and Reducing Delayed Onset Muscle Soreness” (priority 2005, published 2008).

For series [1], the system named is delayed onset muscle soreness. The note with it: six days supplementation with 40 mg/kg HMB, single bout of exercise.
The test system of series [2] is muscle catabolism (3-methylhistidine). The conditions noted are these: intense resistance-weight training.
The test system of series [3] is muscle damage (blood CPK). The conditions noted are these: men and women, 4-week weight training program.
For series [4] the following is noted: "in as little as".
The conditions of series [5]: HMB with 75 g glucose in water compared with HMB with water.
In series [6] the test system is perceived muscle soreness. The conditions noted are these: downhill running protocol.
A further series relates to muscle damage (CPK, LDH). The note with it: 3 g HMB per day, six weeks of training, 20 km run; compared to placebo.

Regarding beta-hydroxy-beta-methylbutyrate [HMB], the DOMS entry in series [1] was “did not reduce”. Further, the “plasma 3-MH” value in series [2] is “significant decrease”. In series [3], the “decrease in blood CPK levels” value is reported as 2%. In series [4], the “time to increase of plasma levels” value is 30 min. Also, in series [5], the “HMB excreted in the urine” value is “less” and the “plasma HMB levels” value is “lower”. Besides, in series [6], the perceived muscle soreness result is listed as “reduced” and the strength loss entry is given as “less strength loss”. For the same substance, in the series on muscle damage (CPK, LDH), the “blood levels of CPK after the run” value is recorded as “reduced levels” and the “blood levels of LDH after the run” value is on record as “reduced levels”.
